Pest or weed control data for 10 compounds are collected here from patent publication US9265253B2, “Use of macrocyclic picolinamides as fungicides” (DOW AGROSCIENCES LLC, priority 2013, dated 2016).

Read-outs that look alike come from different tables or passages of the source.

Common to all, as to type: in vivo
In test [1] the test system is Mycosphaerella graminicola; Anamorph: Septoria tritici. Kind of test: Leaf Blotch of Wheat (SEPTTR) disease control. To be noted: Zymoseptoria tritici; for pest or weed control at 121.5 g/ha: rate 121.5 g/H; for pest or weed control at 100 ppm: rate 100 ppm. The gist of the method: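 Percent disease control is derived from Septoria tritici leaf blotch severity (0 to 100 percent) on treated versus untreated wheat seedlings. Plants get fungicide spray to run-off, with inoculation either preceding or following application, then humid incubation at 20° C.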

Test [2] concerns Puccinia triticina; Synonym: Puccinia recondite f. Sp. Tritici. Kind of test: Wheat Brown Rust (PUCCRT) disease control. As to conditions: Puccinia triticina, topical; for pest or weed control at 121.5 g/ha: rate 121.5 g/H; for pest or weed control at 100 ppm: rate 100 ppm. Summed up: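 Brown rust on first-leaf Yuma wheat: spore inoculation before or after spray application (acetone/Triton X-100 solution, or EC with Trycol in track spray), overnight 100% RH at 22 °C, disease developed at 24 °C. Severity scored 0–100% and converted to percent control against untreated.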

The next test concerns Erysiphe cichoracearum. The experiment in a line: Powdery Mildew of Cucumber (ERYSCI) disease control. As to conditions: Golovinomyces cichoracearum, topical, 24 h, 1 Day Protectant, read-out: Disease Control ERYSCI 1 DP. As for the experimental part:
Technical grades of materials were dissolved in acetone, which were then mixed with nine volumes of water containing 110 ppm Triton X-100. The fungicide solutions were applied onto wheat seedlings using an automated booth sprayer to run-off. All sprayed plants were allowed to air dry prior to further handling. All fungicides were evaluated using the aforementioned method for their activity vs. all target diseases. Wheat leaf blotch and brown rust activity were also evaluated using track spray applications, in which case the fungicides were formulated as EC formulations, containing 0.1% Trycol 5941 in the spray solutions. Wheat plants (variety Yuma) were grown from seed in a greenhouse in 50% mineral soil/50% soil-less Metro mix until the first leaf was fully emerged, with 7-10 seedlings per pot. These plants were inoculated with an aqueous spore suspension of Septoria tritici either prior to or after fungicide treatments. After inoculation the plants were kept in 100% relative humidity (one day in a dark dew chamber followed by two to three days in a lighted dew chamber at 20° C.) to permit spores to germinate and infect the leaf. The plants were then transferred to a greenhouse set at 20° C. for disease to develop. When disease symptoms were fully expressed on the 1st leaves of untreated plants, infection levels were assessed on a scale of 0 to 100 percent disease severity. Percent disease control was calculated using the ratio of disease severity on treated plants relative to untreated plants. Cucumber seedlings (variety Bush Pickle) were grown in soil-less Metro mix, with one plant per pot, and used in the test when 12 to 14 days old. Plants were inoculated with a spore suspension 24 hr following fungicide treatments. After inoculation the plants remained in the greenhouse set at 20° C. until disease was fully expressed. Fungicide formulation, application and disease assessment on the sprayed leaves followed the procedures as described in the Example A.

The test system of another test is Alternaria solani. The experiment in a line: Tomato Early Blight (ALTESO) disease control. To be noted: Alternaria solani, topical, 24 h, 1 Day Protectant, read-out: Disease Control ALTESO 1 DP. As for the experimental part: Technical grades of materials were dissolved in acetone, which were then mixed with nine volumes of water containing 110 ppm Triton X-100. The fungicide solutions were applied onto wheat seedlings using an automated booth sprayer to run-off. All sprayed plants were allowed to air dry prior to further handling. All fungicides were evaluated using the aforementioned method for their activity vs. all target diseases. Wheat leaf blotch and brown rust activity were also evaluated using track spray applications, in which case the fungicides were formulated as EC formulations, containing 0.1% Trycol 5941 in the spray solutions. Wheat plants (variety Yuma) were grown from seed in a greenhouse in 50% mineral soil/50% soil-less Metro mix until the first leaf was fully emerged, with 7-10 seedlings per pot. These plants were inoculated with an aqueous spore suspension of Septoria tritici either prior to or after fungicide treatments. After inoculation the plants were kept in 100% relative humidity (one day in a dark dew chamber followed by two to three days in a lighted dew chamber at 20° C.) to permit spores to germinate and infect the leaf. The plants were then transferred to a greenhouse set at 20° C. for disease to develop. When disease symptoms were fully expressed on the 1st leaves of untreated plants, infection levels were assessed on a scale of 0 to 100 percent disease severity. Percent disease control was calculated using the ratio of disease severity on treated plants relative to untreated plants. Tomato plants (variety Outdoor girl) were propagated in soil-less Metro mix, with each pot having one plant, and used when 12 to 14 days old. Test plants were inoculated with an aqueous spore suspension of Alternaria solani 24 hr after fungicide treatments. After inoculation the plants were kept in 100% relative humidity (one day in a dark dew chamber followed by two to three days in a lighted dew chamber at 20° C.) to permit spores to germinate and infect the leaf. The plants were then transferred to a growth room at 22° C. for disease to develop. Fungicide formulation, application and disease assessment on the sprayed leaves followed the procedures as described in the Example A.

[3] abbreviates: 24 h, 1 Day Protectant, read-out: SEPTTR 1 DP disease control.
[4] abbreviates: 72 h, 3 Day Curative, read-out: SEPTTR 3 DC disease control.
[5] abbreviates: 24 h, 1 Day Protectant, read-out: PUCCRT 1 DP disease control.
Where [6] appears, read: 72 h, 3 Day Curative, read-out: PUCCRT 3 DC disease control.

Take `CCO[C@@H]1[C@@H](Cc2ccccc2)CCC[C@H](NC(=O)c2nccc(OC)c2OC(C)=O)C(=O)O[C@H]1C` [Compound F87]: the pest or weed control at 121.5 g/ha in test [1] (setting [3]), in test [1] (setting [4]), in test [2] (setting [5]) and in test [2] (setting [6]) was 80 to 100% each time. Moreover, the pest or weed control at 100 ppm in the test on Erysiphe cichoracearum lay in the range of 0 to 80%; in the test on Alternaria solani it was 80 to 100%.
With `COCC[C@H]1CCC[C@H](NC(=O)c2nccc(OC)c2OCOC(C)=O)C(=O)O[C@@H](C)[C@@H]1Oc1ccccc1` [Compound F130], the pest or weed control at 100 ppm lay within 80 to 100% in test [1] (setting [3]); 0 to 80% in test [1] (setting [4]); 80 to 100% in test [2] (setting [5]); 80 to 100% in test [2] (setting [6]); 0 to 80% in the test on Erysiphe cichoracearum; 0 to 80% in the test on Alternaria solani. The pest or weed control at 121.5 g/ha in test [1] (setting [3]), in test [1] (setting [4]), in test [2] (setting [5]) and in test [2] (setting [6]) was 80 to 100% in each case.
On to `CCCO[C@@H]1[C@@H](CCC(C)C)CCC[C@H](NC(=O)c2nccc(OC)c2OC(C)=O)C(=O)O[C@H]1C` [Compound F64], for which the pest or weed control at 100 ppm (in test [1] (setting [3]); in test [1] (setting [4]); in test [2] (setting [5]); in test [2] (setting [6]); with Erysiphe cichoracearum; in the test on Alternaria solani) was 80 to 100% throughout. The pest or weed control at 121.5 g/ha in test [1] (setting [3]), in test [1] (setting [4]), in test [2] (setting [5]) and in test [2] (setting [6]) was 80 to 100% in each case.
As for `COc1ccnc(C(=O)N[C@H]2CCC[C@H](Cc3ccccc3)[C@@H](OCC(C)C)[C@H](C)OC2=O)c1OCOC(=O)C(C)C` [Compound F151], the pest or weed control at 100 ppm (in test [1] (setting [3]); in test [1] (setting [4]); in test [2] (setting [5]); in test [2] (setting [6]); with Erysiphe cichoracearum; in the test on Alternaria solani) was 80 to 100% in each case. Moreover, the pest or weed control at 121.5 g/ha in test [1] (setting [3]), in test [1] (setting [4]), in test [2] (setting [5]) and in test [2] (setting [6]) was 80 to 100% each time.
Consider `COc1ccnc(C(=O)N[C@H]2CCC[C@H](Cc3ccccc3)[C@@H](OCC(C)C)[C@H](C)OC2=O)c1OC(C)=O` [Compound F70], for which the pest or weed control at 100 ppm was in the range of 80 to 100% in test [1] (setting [3]); 80 to 100% in test [1] (setting [4]); 80 to 100% in test [2] (setting [5]); 80 to 100% in test [2] (setting [6]); 80 to 100% in the test on Erysiphe cichoracearum; 0 to 80% in the test with Alternaria solani. Moreover, the pest or weed control at 121.5 g/ha in test [1] (setting [3]), in test [1] (setting [4]), in test [2] (setting [5]) and in test [2] (setting [6]) was 80 to 100% each time.
Take `COc1ccc(C[C@H]2CCC[C@H](NC(=O)c3nccc(OC)c3OCOC(C)=O)C(=O)O[C@@H](C)[C@@H]2OCC(C)C)cc1` [Compound F118]: the pest or weed control at 100 ppm in test [1] (setting [3]) lay in the range of 80 to 100%; in test [1] (setting [4]), 80 to 100%; in test [2] (setting [5]), 80 to 100%; in test [2] (setting [6]), 80 to 100%; in the test on Erysiphe cichoracearum, 0 to 80%; in the test with Alternaria solani it was 0 to 80%. The pest or weed control at 121.5 g/ha in test [1] (setting [3]), in test [1] (setting [4]), in test [2] (setting [5]) and in test [2] (setting [6]) was 80 to 100% each time.
Take `COc1ccnc(C(=O)N[C@H]2CCC[C@H](CC3CCCC3)[C@@H](OCC3CC3)[C@H](C)OC2=O)c1OCOC(C)=O` [Compound F117]: the pest or weed control at 100 ppm (in test [1] (setting [3]); in test [1] (setting [4]); in test [2] (setting [5]); in test [2] (setting [6]); in the test with Erysiphe cichoracearum; with Alternaria solani) was 80 to 100% in each case. Also, the pest or weed control at 121.5 g/ha in test [1] (setting [3]), in test [1] (setting [4]), in test [2] (setting [5]) and in test [2] (setting [6]) was 80 to 100% each time.
For the compound `COc1ccnc(C(=O)N[C@H]2CCC[C@H](Cc3ccc(C)cc3)[C@@H](OCC(C)C)[C@H](C)OC2=O)c1OCOC(C)=O` [Compound F126], the pest or weed control at 100 ppm in test [1] (setting [3]) is 80 to 100%; in test [1] (setting [4]), 80 to 100%; in test [2] (setting [5]), 80 to 100%; in test [2] (setting [6]) it was 80 to 100%; in the test with Erysiphe cichoracearum it was 80 to 100%; in the test with Alternaria solani, 0 to 80%. Also, the pest or weed control at 121.5 g/ha lay in the range of 80 to 100% in test [1] (setting [3]), 80 to 100% in test [1] (setting [4]), 80 to 100% in test [2] (setting [5]) and 0 to 80% in test [2] (setting [6]).
With `CCCO[C@@H]1[C@@H](Cc2ccccc2)CCC[C@H](NC(=O)c2nccc(OC)c2OCOC(=O)COCC)C(=O)O[C@H]1C` [Compound F174], the pest or weed control at 100 ppm (in test [1] (setting [3]); in test [1] (setting [4]); in test [2] (setting [5]); in test [2] (setting [6]); in the test on Erysiphe cichoracearum; in the test with Alternaria solani) was 80 to 100% throughout. Besides, the pest or weed control at 121.5 g/ha in test [1] (setting [3]), in test [1] (setting [4]), in test [2] (setting [5]) and in test [2] (setting [6]) was 80 to 100% each time.
For the compound `COCC[C@H]1CCC[C@H](NC(=O)c2nccc(OC)c2OC(C)=O)C(=O)O[C@@H](C)[C@@H]1Oc1ccccc1` [Compound F78], the pest or weed control at 100 ppm in test [1] (setting [3]) was 80 to 100%; in test [1] (setting [4]), 80 to 100%; in test [2] (setting [5]) it was 80 to 100%; in test [2] (setting [6]) it was 80 to 100%; in the test with Erysiphe cichoracearum, 0 to 80%; in the test with Alternaria solani it was 0 to 80%. The pest or weed control at 121.5 g/ha in test [1] (setting [3]), in test [1] (setting [4]), in test [2] (setting [5]) and in test [2] (setting [6]) was 80 to 100% throughout.
